Like-named read-outs stand apart in the source and are kept apart here.
Tests used:
[1] = Stability toward liver microsome incubation; type: in vitro ADME
[2] = test system: A431 cells; assay: A431 cell proliferation assay (MTT), alone and in combination with Tarceva; type: cell-based; details: for A431 Cell Proliferation CI Value: CI <0.8 indicates synergy
Method: This example describes an assay that measures the ability of compounds to inhibit the proliferation of cultured cells. This assay can also be used to assess whether combining two or more compounds produces additive, synergistic, or antagonistic effects on cell growth.
On day 1, the cells were seeded at 10^3 cells per well in 100 μl of complete media under standard conditions.
On day 2, the cells were washed and 100 μl serum free media was added. The cells were then incubated for at least 2 hours before the addition of compound(s). 20 μl of compound(s) was added to the respective wells and incubated at 37° C., 5% CO2 for 72 hrs.
On day 5, 50 μl of the MTT dye solution was added to each well. The plates were incubated at 37° C., 5% CO2 for 1 hr. The media was then aspirated and the cells were resuspended in […] of DMSO. The plates were allowed to incubate for 5 min at room temperature with gentle shaking.
The absorbance in each well was determined at 560 nm using a Polarstar plate reader.
The A431 cell line over-expresses the EGF receptor, and was utilized to assess the ability of AD4 compounds to inhibit EGF-mediated cell proliferation.

[3] = test system: A431 cells; assay: Caspase 3/7 activity, measurement of apoptosis; type: cell-based; details: 10 μM compared to 10 μM Tarceva
[4] = target: p53/MDM2 binding (Homo sapiens (Human), UniProt Q00987); assay: AlphaScreen measurement of p53/MDM2 interaction (truncated GST-MDM2 aa 1-150)
Sequence of p53/MDM2 binding (Q00987 1-150): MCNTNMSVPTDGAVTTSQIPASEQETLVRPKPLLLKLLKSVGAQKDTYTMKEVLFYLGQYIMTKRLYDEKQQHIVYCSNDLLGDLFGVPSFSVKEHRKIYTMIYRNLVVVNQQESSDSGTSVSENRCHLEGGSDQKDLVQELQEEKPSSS
Method: The following example describes an assay that measured the ability of compounds to inhibit the binding of p53 to MDM2 using the AlphaScreen assay technology (PerkinElmer). […] Recombinant, truncated, human, N-terminal GST-MDM2 (aa 1-150) was obtained from GeneScript. Wild-type, full length human N-terminal 6-his p53 was purchased from SignalChem.
Resulting in a final reaction volume of 24 μl PBS, 0.1% Tween-20, and 10% glycerol, 30 ng of MDM2 was added, followed by the addition of 10 of compound diluted in 100% DMSO that provided a final DMSO concentration of 4%. 30 ng of p53 was then added, mixed, and incubated at room temperature for 1 hour. Glutathione donor beads and Nickel acceptor beads (0.5 μg each; PerkinElmer) were added under subdued lighting conditions to a final reaction volume of 30 μl/well in a 96 well, ½ volume Proxima plate. The reaction was incubated at room temperature with shaking for 18 hrs in the dark. Analysis was then performed on a PerkinElmer EnSpire plate reader to determine the ability of compounds to inhibit the binding of p53 to MDM2.

[5] = target: p53/MDM2 binding (full length MDM2) (Homo sapiens (Human), UniProt Q00987); assay: AlphaScreen p53/MDM2 binding with full length GST-MDM2; details: FIG. 1, read-out: inhibition of p53/MDM2 binding EC50
Sequence of p53/MDM2 binding (full length MDM2) (Q00987 whole entry): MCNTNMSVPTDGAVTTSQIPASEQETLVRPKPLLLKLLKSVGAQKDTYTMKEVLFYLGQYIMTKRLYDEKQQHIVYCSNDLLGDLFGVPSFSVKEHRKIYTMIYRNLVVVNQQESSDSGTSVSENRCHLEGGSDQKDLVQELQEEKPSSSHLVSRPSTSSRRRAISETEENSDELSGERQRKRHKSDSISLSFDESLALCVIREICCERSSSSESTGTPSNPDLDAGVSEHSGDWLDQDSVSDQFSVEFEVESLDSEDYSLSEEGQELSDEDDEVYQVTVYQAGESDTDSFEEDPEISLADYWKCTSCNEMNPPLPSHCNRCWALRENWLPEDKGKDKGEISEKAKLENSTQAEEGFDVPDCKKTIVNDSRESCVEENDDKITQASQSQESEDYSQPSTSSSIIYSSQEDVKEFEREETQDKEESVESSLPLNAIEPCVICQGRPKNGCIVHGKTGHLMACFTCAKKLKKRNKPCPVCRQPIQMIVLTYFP

[6] = test system: p53-induced reporter gene activity; assay: p53 reporter gene assay in HEK293 cells; type: cell-based; details: 10 μM
Method: This example describes an assay that measures the ability of compounds to stimulate p53-induced reporter gene activity. In order for p53 activity to be observed, the interaction of p53 with MDM2 must be inhibited. Methods are according to Examples 1-5 unless otherwise specified.
HEK293 cells were transiently transfected with the inducible p53-responsive firefly luciferase reporter and constitutively-expressing Renilla construct. After 16 hrs of transfection at 37° C., 5% CO2, the transfection media was removed and 200 μl/well of assay media was added. The cells were then incubated for 8 hrs at 37° C., 5% CO2.
[…] of compound(s) was added to the cells and incubated for 16 hrs at 37° C. and 5% CO2. The cells were carefully washed with 200 μl of PBS. 20 μl_of lysis buffer was then added to each well and incubated at room temperature for 15 minutes with shaking.
The lysis buffer supernatant was transferred to a white/opaque CoStar 96-well plate and 100 μl of firefly luceriferase assay substrate was added. The luminescence in each well was determined using a Polarstar plate reader.
100 μl of Stop and Glow reagent was added to each well, mixed, and the luminescence generated by the Renilla luciferase was determined using a Polarstar plate reader. The Renilla signal was used to normalize the transfection efficiency and cell viability.

[7] = test system: apoptosis-related proteins in A549 cells; assay: Proteome profile of apoptosis-related proteins; type: cell-based, human; details: 5 μM
Source text: This example describes an assay that measured the relative expression levels of 35 apoptosis-related proteins in a single sample of whole cell extract. Methods are according to Examples 1-2 unless otherwise specified.
The protocol and reagents were purchased from R&D systems (Human apoptosis array kit; cat. #ARY009). The kit consisted of an antibody array spotted on nitrocellulose membranes with each specific antibody printed in duplicate. The detection antibodies were biotinylated so they could be used with a streptavidin-HRP conjugate designed for chemiluminescent imaging. The protocol was modified to utilize the LiCor infrared imaging technology by substituting an infrared 680 nm-tagged streptavidin.
The following day, two μl of compound dilutions in 100% DMSO were added to the appropriate wells resulting in a final concentration of 5 μM. The plates were then incubated for 6 hours at 37° C., 5% CO2, and 85% relative humidity. Following incubation, the cells were washed with 2 ml of PBS, then lysed with 500 μl/well of Lysis buffer, supplemented with a 1/200 dilution of mammalian protease inhibitor cocktail (Sigma Aldrich). The plates were shaken for 30 min at room temperature, spun @ 14,000×g for 5 minutes. 250 μl of the supernatant was removed and added to 1.25 ml of Assay buffer 1. The supernatant and Assay buffer 1 were incubated with membranes overnight at room temperature with shaking.
The following day, the membranes were washed 3 times for 10 min each, with 1× wash buffer in individual 50 ml Falcon tubes at room temperature with rotation. The membranes were incubated with a 1/100 dilution of biotinylated detection antibodies for 3 hours at room temperature with shaking.
The membranes were washed, then incubated with a 1/1000 dilution of IR 680 nm-labeled streptavidin (LiCor) for 60 minutes with shaking in the dark. The membranes were again washed. Excess buffer was blotted from membranes, placed between two pieces of transparent plastic and imaged on the LiCor infrared imager. The LiCor Odyssey software is used to quantitate the pixel intensity of each spot in the array.
First, several compounds were evaluated in a proteome profiling array system containing antibodies to 35 apoptosis-related proteins. In this assay (see Example 3), the relative expression levels of these proteins in cell extracts are measured from treated and non-treated A549 cells.

[8] = test system: A549 cells; assay: DNA fragmentation (Cell Death Detection ELISA), measurement of apoptosis; details: Homo sapiens
Method: The plates were allowed to incubate overnight @ 37° C., 5% CO2. On day 2, the media was removed from the plates and 160 μl media containing 5% FBS was added. 40 μl of media-containing test compound in 100% DMSO (prepared at 5× the dosing concentration) was added to the existing media resulting in a final DMSO concentration of 0.5%. Cells were incubated in the presence of a compound for 24 hrs @ 37° C., 5% CO2.
After 24 hrs, the abovementioned plates were centrifuged at 200×g for 10 min. The media was removed by gently inverting the plate and disposing of the media onto a paper towel. The plates were tapped gently to remove excess media. 200 μl lysis buffer was added to each well, and mixed by shaking at 300 rpm. The plates were incubated at room temperature for 30 min. The plates were centrifuged at 200×g for 10 min and 20 μl of lysis supernatant was removed for use in ELISA analysis to detect cell death.
20 μl of the cell lysis supernatant was placed into streptavidin-coated plates with 20 μl positive control and 20 μl incubation buffer negative control. Add 80 μl Immunoreagent (for DNA fragment detection) to each well. The wells were covered with foil adhesive and shaken at 300 rpm for 2 h at room temperature. The supernatant solution was removed and the wells were washed 3 times with 300 μl incubation buffer. 100 μl of ABTS detection substrate was added to each well. The wells were incubated on a plate shaker at 250 rpm for approximately 10-20 min. 100 μl ABTS of stop buffer was then added. […] The absorbance measures the colored product spectrophotometrically, correlating with apoptosis.
The percent increase in DNA fragmentation produced by compounds at a concentration of 1 and 10 μM were compared to background, and to the response produced by 500 nM staurosporin.

[9] = Homo sapiens, A-431, A431 cells, further studies, Example 9, Table 7A, read-out: A431 Cell Proliferation (IC50 Value)
[10] = combination with Tarceva, Example 9, Table 7B
[11] = A431 cells, further studies, Example 9, Table 7A, read-out: A431 Cell Proliferation (IC50 Value)
[12] = A431 cells, preliminary assessment, Example 8, Table 6A, read-out: A431 Cell Proliferation (IC50)
[13] = combination with Tarceva, Example 8, Table 6B
[14] = Table 7C, read-out: p53/MDM2 IC50 Value
[15] = Table 9, read-out: Inhibition of p53/MDM2 Binding IC50 Value
[16] = A549, read-out: % Inc. Relative to Staurosporin (500 nM), DNA fragmentation
[17] = A549, read-out: % Inc. over Background, DNA fragmentation

Row | Structure (SMILES) | stability (toward liver microsome incubation) [1] | IC50 [2, 9] | IC50 [2, 11] | IC50 [2, 12] | IC50 [4, 14] | A431 Cell Proliferation CI Value [2, 10] | A431 Cell Proliferation CI Value [2, 13] | also measured
1 | Oc1c(C(Nc2cccnc2)c2ccc(C(F)(F)F)cc2)ccc2cccnc12 (stereo not drawn) [AD4-10942] |  |  | 3200 nM | 3200 nM | 18000 nM | 0.57 | 0.60 | Caspase 3/7 activity % Increase Relative to Tarceva [3]: 72%; IC50 [4, 15]: 18000 nM
2 | Cc1ccnc(NC(c2ccc3cccnc3c2O)c2sccc2C)c1 (stereo not drawn) [AD4-10963] |  | 3400 nM |  |  | 2000 nM | 0.63 | 0.43 | Caspase 3/7 activity % Increase Relative to Tarceva [3]: 38%; EC50 [5]: 100 nM; IC50 ([2]; Homo sapiens, A-431, A431 cells, preliminary assessment, Example 8, Table 6A, read-out: A431 Cell Proliferation (IC50)): 3400 nM; synergistic effects with Tarceva in A431 cell proliferation (in words) ([2]; combination with Tarceva): produced the greatest effects; IC50 [4, 15]: 2000 nM
3 | Cc1ccc(C)c(C(Nc2cccnc2)c2cc(Cl)c3cccnc3c2O)c1 (stereo not drawn) [AD4-10944] |  |  | 1800 nM | 1800 nM |  |  |  | stimulation of p53 reporter gene activity [6]: 7.5 fold
4 | Cc1ccc2c(C)nc(Nc3nc(-c4ccccc4C)cc(=O)[nH]3)nc2c1 [AD4-11511] |  |  | 1000 nM | 1000 nM | 4300 nM | 0.89 | 0.89 | 
5 | Cc1cc(Cl)cnc1NC(c1ccc(Cl)cc1Cl)c1ccc2cccnc2c1O (stereo not drawn) [AD4-13130] |  |  |  |  |  |  |  | phosphorylated forms of p53 [7]: increased all three phosphorylated forms of p53; activation at 1 µM [8, 16]: 58%; activation at 10 µM [8, 16]: 65%; activation at 1 µM [8, 17]: 565%; activation at 10 µM [8, 17]: 614%
6 | CCc1cc(Cl)cnc1NC(c1ccc(Cl)cc1)c1ccc2cccnc2c1O (stereo not drawn) [AD4-13225] |  |  |  |  |  |  |  | phosphorylated forms of p53 [7]: increased all three phosphorylated forms of p53; activation at 1 µM [8, 16]: 48%; activation at 10 µM [8, 16]: 42%; activation at 1 µM [8, 17]: 508%; activation at 10 µM [8, 17]: 458%

Further lines, with some results ahead:

Row | stability (toward liver microsome incubation) [1] | IC50 [2, 9] | IC50 [2, 11] | IC50 [2, 12] | IC50 [4, 14] | Structure (SMILES) | A431 Cell Proliferation CI Value [2, 10] | A431 Cell Proliferation CI Value [2, 13] | also measured
7 | increased stability over AD4-10628 | 2000 nM |  |  |  | Cc1cc(Cl)cnc1NC(c1ccc(C(F)(F)F)cc1)c1ccc2cccnc2c1O (stereo not drawn) [AD4-13041] | 0.69 |  | 
8 | increased stability | 2200 nM |  |  |  | Cc1cc(Cl)cnc1NC(c1ccc(C(F)(F)F)cc1F)c1ccc2cccnc2c1O (stereo not drawn) [AD4-13042] | 0.81 |  | 
9 | increased stability over AD4-10628 |  |  |  |  | Oc1c(C(Nc2ccc(Cl)cn2)c2ccc(C(F)(F)F)cc2)ccc2cccnc12 (stereo not drawn) [AD4-13053] | 0.78 |  | 

From patent publication US9023354B2, “Combination therapy with MDM2 and EFGR inhibitors” (priority 2010, dated 2015)
